Assay results published in article PMC11881035, “^68Ga-Labeled Glycopeptides as Effective Tools for Liver Function Imaging” (Molecular Pharmaceutics, 2025).
Read-outs that look alike come from different tables or passages of the source.

Legend:
complex stability in PBS = assay type: physicochemical
Procedure: (§1) The ^68Ge/^68Ga generator, devices for analytical HPLC, semipreparative HPLC, mass spectrometry, radio-thin layer chromatography, gamma counter and animal models for biodistribution and imaging studies including the image reconstruction procedures were the same as described before.[22] Stability assays in PBS and human blood serum, protein binding as well as determination of log D values followed established protocols.[25] Binding affinities (IC50) of selected ligands were determined in an isolated receptor-based assay according to a previously published procedure with minor modifications.[22] Dilutions of nonradioactive complexes were made with PBS + 0.1% BSA (10^–5–10^–12 M). Preparation of [^125I]I-Asialoorosomucoid which serves as the radioactive standard ligand has been published recently.[21]

[1] = complex stability in human blood serum; assay type: in vitro ADME
Procedure: as §1

ASGR = target: T1, ASGR (Mus musculus, UniProt P24721+P34927); assay: blocking experiment, coinjection of N-acetylgalactosamine, biodistribution in BALB/c mice; conditions: in vivo, 30 min p.i., 27.7 μmol N-acetylgalactosamine
T1 construct: from tissue; host or cells: liver and other organs of living healthy female BALB/c mice
T1 sequence (P34927 1-284): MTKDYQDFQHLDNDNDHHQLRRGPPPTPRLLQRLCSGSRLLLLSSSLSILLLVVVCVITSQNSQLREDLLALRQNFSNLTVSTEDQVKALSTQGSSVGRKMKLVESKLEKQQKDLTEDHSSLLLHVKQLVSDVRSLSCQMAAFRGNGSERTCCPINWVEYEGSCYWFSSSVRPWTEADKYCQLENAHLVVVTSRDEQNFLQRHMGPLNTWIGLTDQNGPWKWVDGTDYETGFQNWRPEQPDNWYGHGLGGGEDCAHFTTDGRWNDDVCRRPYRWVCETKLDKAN
T1 sequence (P24721 1-301): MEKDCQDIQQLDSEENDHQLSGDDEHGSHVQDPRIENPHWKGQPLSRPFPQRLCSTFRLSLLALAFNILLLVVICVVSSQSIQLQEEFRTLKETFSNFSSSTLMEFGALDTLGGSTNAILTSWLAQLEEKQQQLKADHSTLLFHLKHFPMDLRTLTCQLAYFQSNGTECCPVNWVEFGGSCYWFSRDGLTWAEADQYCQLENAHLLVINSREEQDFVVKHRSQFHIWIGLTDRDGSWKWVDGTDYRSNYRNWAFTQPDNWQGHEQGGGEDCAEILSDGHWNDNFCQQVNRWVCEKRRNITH
Procedure: Less liver uptake was found for [^68Ga]Ga-NODAGA-HexaLysan (55.5 ± 7.4% ID/g, 30 min p.i.) and least for [^68Ga]Ga-NODAGA-TriLysan (9.4 ± 2.0% ID/g, 30 min p.i.). […] However, an increasing activity accumulation in the intestine was found for [^68Ga]Ga-NODAGA-NonaLysan, [^68Ga]Ga-NODAGA-GalNAc-Nonalysan, and [^68Ga]Ga-NODAGA-HexaLysan over time. Nevertheless, liver-to-organ ratios were highest for [^68Ga]Ga-NODAGA-NonaLysan (Figure 3). Lower liver-to-organ ratios were found for the GalNAc derivative due to higher off-target binding in the pancreas, stomach, heart, muscle, lung, and femur. […] Coinjection of both nonamers with a large excess of N-acetylgalactosamine led to a statistically significant reduction of liver uptake indicating specific interactions of the tracers with their target (Figure 4). As a consequence of the reduced liver uptake also a reduction of the intestinal uptake was observed.
Figure 4 Data (% ID/g) from the blocking experiments using ^68Ga-labeled NODAGA-GalNAc-NonaLysan and NODAGA-NonaLysan in healthy BALB/c mice at 30 min p.i. Blocking was carried out using 27.7 μmol of N-acetylgalactosamine (**p ≤ 0.01; *p ≤ 0.05).

[2] = protein binding in human serum; assay type: in vitro ADME; conditions: human, serum, read-out: protein binding (%) (converted)
Procedure: as §1

log D determination = assay type: physicochemical; conditions: read-out: log D
Procedure: as §1

[3] = biodistribution in healthy BALB/c mice; conditions: mouse, in vivo; for tissue uptake at 10 min: 10 min p.i.; for tissue uptake at 0.5 h: 30 min p.i.; for tissue uptake at 1 h: 60 min p.i.
Procedure: as §1
Animal experiments were performed in accordance with the Austrian animal experiments law (BGBl. I Nr. 114/2012) and the institution’s animal welfare standards as approved by the Austrian Federal Ministry of Education, Science and Research (BMBWF, 2022–0.311.708). Imaging experiments were conducted at Werner Siemens Imaging Center (Tübingen, Germany) according to the German animal welfare act as approved by the local authorities (R5/19 G, R09/21 G).
Figure 2 Biodistribution data (% ID/g) of ^68Ga-labeled NODAGA-GalNAc-NonaLysan, NODAGA-NonaLysan, NODAGA-HexaLysan, and NODAGA-TriLysan in healthy BALB/c mice at 10, 30, and 60 min p.i. (100 pmol, 1 MBq).

With `CC(=O)N[C@@H]1[C@@H](O)[C@@H](O)[C@@H](CO)O[C@H]1n1cc(CCCCC(=O)NCCCC[C@H](NC(=O)CCCNC(=O)CCC(C(=O)O)N2CCN(CC(=O)O)CCN(CC(=O)O)CC2)C(=O)NCC(=O)NCC(=O)N[C@@H](CCCCNC(=O)CCCCc2cn([C@@H]3O[C@H](CO)[C@H](O)[C@H](O)[C@H]3NC(C)=O)nn2)C(=O)NCC(=O)NCC(=O)N[C@@H](CCCCNC(=O)CCCCc2cn([C@@H]3O[C@H](CO)[C@H](O)[C@H](O)[C@H]3NC(C)=O)nn2)C(=O)NCC(=O)NCC(=O)N[C@@H](CCCCNC(=O)CCCCc2cn([C@@H]3O[C@H](CO)[C@H](O)[C@H](O)[C@H]3NC(C)=O)nn2)C(=O)NCC(=O)NCC(=O)N[C@@H](CCCCNC(=O)CCCCc2cn([C@@H]3O[C@H](CO)[C@H](O)[C@H](O)[C@H]3NC(C)=O)nn2)C(=O)NCC(=O)NCC(=O)N[C@@H](CCCCNC(=O)CCCCc2cn([C@@H]3O[C@H](CO)[C@H](O)[C@H](O)[C@H]3NC(C)=O)nn2)C(=O)NCC(=O)NCC(=O)N[C@@H](CCCCNC(=O)CCCCc2cn([C@@H]3O[C@H](CO)[C@H](O)[C@H](O)[C@H]3NC(C)=O)nn2)C(=O)NCC(=O)NCC(=O)N[C@@H](CCCCNC(=O)CCCCc2cn([C@@H]3O[C@H](CO)[C@H](O)[C@H](O)[C@H]3NC(C)=O)nn2)C(=O)NCC(=O)NCC(=O)N[C@@H](CCCCNC(=O)CCCCc2cn([C@@H]3O[C@H](CO)[C@H](O)[C@H](O)[C@H]3NC(C)=O)nn2)C(=O)NCC(=O)NCC(N)=O)nn1` (stereo partly drawn) [[^68Ga]Ga-NODAGA-GalNAc-NonaLysan, metal not drawn] the “complex stability in PBS (% intact ligand)” value (complex stability in PBS; 2 min) was 99.1%, the “complex stability in PBS (% intact ligand)” value (complex stability in PBS; 30 min) was 99.0% and the “complex stability in PBS (% intact ligand)” value (complex stability in PBS; 60 min) was 99.1%. The “complex stability in PBS (% intact ligand)” value (complex stability in PBS; 120 min) was 99.1%, the “complex stability in serum (% intact ligand)” value ([1]; 2 min) was 98.8 ± 0.1% and the “complex stability in serum (% intact ligand)” value ([1]; 30 min) was 98.8%. For the same compound, the “complex stability in serum (% intact ligand)” value ([1]; 60 min) was 99.0 ± 0.2%, the “complex stability in serum (% intact ligand)” value ([1]; 120 min) was 98.8 ± 0.2% and the tissue uptake at 0.5 h (ASGR; read-out: Blood uptake) was 0.4 ± 0.1 %ID/g. It also gave a tissue uptake at 0.5 h (ASGR; read-out: Femur uptake) of 0.7 ± 0.3 %ID/g, a tissue uptake at 0.5 h (ASGR; read-out: Heart uptake) of 0.8 ± 0.1 %ID/g and a tissue uptake at 0.5 h (ASGR; read-out: Intestine uptake) of 1.9 ± 0.4 %ID/g. The tissue uptake at 0.5 h (ASGR; read-out: Kidneys uptake) was 1.9 ± 0.4 %ID/g, the tissue uptake at 0.5 h (ASGR; read-out: Liver uptake) was 52.9 ± 3.2 %ID/g and the tissue uptake at 0.5 h (ASGR; read-out: Lung uptake) was 1.3 ± 0.3 %ID/g. It also gave a tissue uptake at 0.5 h (ASGR; read-out: Muscle uptake) of 1 ± 0.3 %ID/g, a tissue uptake at 0.5 h (ASGR; read-out: Pancreas uptake) of 1.5 ± 0.8 %ID/g and a tissue uptake at 0.5 h (ASGR; read-out: Spleen uptake) of 0.3 ± 0.02 %ID/g. It also gave a tissue uptake at 0.5 h (ASGR; read-out: Stomach uptake) of 2.4 ± 0.9 %ID/g, a fraction unbound ([2]; 2 min) of 0.858 and a fraction unbound ([2]; 30 min) of 0.86. It also gave a fraction unbound ([2]; 60 min) of 0.826, a fraction unbound ([2]; 120 min) of 0.884 and a logD (log D determination) of -4.05. For the same compound, the tissue uptake at 10 min ([3]; read-out: Blood uptake) was 0.9 ± 0.5 %ID/g, the tissue uptake at 10 min ([3]; read-out: Femur uptake) was 0.9 ± 0.4 %ID/g and the tissue uptake at 10 min ([3]; read-out: Heart uptake) was 1.9 ± 0.5 %ID/g. The tissue uptake at 10 min ([3]; read-out: Intestine uptake) was 1.3 ± 0.3 %ID/g, the tissue uptake at 10 min ([3]; read-out: Kidneys uptake) was 3.6 ± 2.7 %ID/g and the tissue uptake at 10 min ([3]; read-out: Liver uptake) was 69.4 ± 5 %ID/g. It also gave a tissue uptake at 10 min ([3]; read-out: Lung uptake) of 1.5 ± 0.1 %ID/g, a tissue uptake at 10 min ([3]; read-out: Muscle uptake) of 1.3 ± 0.3 %ID/g and a tissue uptake at 10 min ([3]; read-out: Pancreas uptake) of 5 ± 0.5 %ID/g. It also gave a tissue uptake at 10 min ([3]; read-out: Spleen uptake) of 0.3 ± 0.1 %ID/g, a tissue uptake at 10 min ([3]; read-out: Stomach uptake) of 2.3 ± 0.4 %ID/g and a tissue uptake at 0.5 h ([3]; read-out: Blood uptake) of 0.3 ± 0.1 %ID/g. It also gave a tissue uptake at 0.5 h ([3]; read-out: Femur uptake) of 0.8 ± 0.1 %ID/g, a tissue uptake at 0.5 h ([3]; read-out: Heart uptake) of 1.7 ± 0.2 %ID/g and a tissue uptake at 0.5 h ([3]; read-out: Intestine uptake) of 3.5 ± 0.2 %ID/g. The tissue uptake at 0.5 h ([3]; read-out: Kidneys uptake) was 1.5 ± 0.2 %ID/g, the tissue uptake at 0.5 h ([3]; read-out: Liver uptake) was 77.6 ± 8 %ID/g and the tissue uptake at 0.5 h ([3]; read-out: Lung uptake) was 1.5 ± 0.2 %ID/g. The tissue uptake at 0.5 h ([3]; read-out: Muscle uptake) was 1.2 ± 0.1 %ID/g, the tissue uptake at 0.5 h ([3]; read-out: Pancreas uptake) was 5.6 ± 0.6 %ID/g and the tissue uptake at 0.5 h ([3]; read-out: Spleen uptake) was 0.3 ± 0.03 %ID/g. For the same compound, the tissue uptake at 0.5 h ([3]; read-out: Stomach uptake) was 2.7 ± 1 %ID/g, the tissue uptake at 1 h ([3]; read-out: Blood uptake) was 0.3 ± 0.1 %ID/g and the tissue uptake at 1 h ([3]; read-out: Femur uptake) was 0.9 ± 0.4 %ID/g. It also gave a tissue uptake at 1 h ([3]; read-out: Heart uptake) of 1.7 ± 0.1 %ID/g, a tissue uptake at 1 h ([3]; read-out: Intestine uptake) of 5.6 ± 0.03 %ID/g and a tissue uptake at 1 h ([3]; read-out: Kidneys uptake) of 1.3 ± 0.02 %ID/g. It also gave a tissue uptake at 1 h ([3]; read-out: Liver uptake) of 57.6 ± 0.7 %ID/g, a tissue uptake at 1 h ([3]; read-out: Lung uptake) of 1.2 ± 0.04 %ID/g and a tissue uptake at 1 h ([3]; read-out: Muscle uptake) of 1.1 ± 0.1 %ID/g. The tissue uptake at 1 h ([3]; read-out: Pancreas uptake) was 5 ± 0.6 %ID/g, the tissue uptake at 1 h ([3]; read-out: Spleen uptake) was 0.3 ± 0.1 %ID/g and the tissue uptake at 1 h ([3]; read-out: Stomach uptake) was 2.2 %ID/g.
